The test addresses human S1P1 receptors (Homo sapiens (Human), UniProt P21453). In words: Human S1P1 Receptor Calcium FLIPR Antagonist Assay (HeLa Gα16 S1P1). The test is classed as cell-based. The following applies: relative antagonism vs probing agonist GNF-AC-1 at EC80, HeLa-S1P1/Gα16 cells. The source says:
Human S1P1 Receptor Calcium FLIPR Antagonist Assay
The assay measures intracellular changes of Ca^2+ mediated by the synthetic probing agonist 3-{[2-(2-Trifluoromethyl-biphenyl-4-yl)-benzo[b]thiophen-5-ylmethyl]-amino}-propionic acid (GNF-AC-1) in the HeLa-S1P1/Gα16 cell clone 1: HeLa (human cervix carcinoma, ATCC CCL2) cells stably expressing N-terminally myc-tagged human S1P1 receptors (GenBank™ accession No. NM_001400; UNIPROT P21453) and promiscuous Gα16 protein (GenBank™ accession number M63904, Swissprot P30679) are cultured at 37° C., 5% CO2, and 95% relative humidity. The cells are plated in 384 well black plates (10′000 cells per well). After 24 hours the cells are loaded with Fluo-4-AM (1.6 μM in HBSS and 2.5 mM probenicid) for 1 hour at 37° C. After washing, the cells are transferred to the FLIPR. The test compounds are added at different concentrations (≦100 μM) in HBSS in the presence of 0.1% BSA and changes in fluorescence are recorded (indication of agonism). The probing agonist is added 20-30 minutes afterwards to the wells at a concentration giving 80% of the maximal activity (EC80). After each addition, time points are collected as follows: 20 time points (2 seconds) before the addition of the agonist (Fmin) and 60 time points (1 or 2 seconds) after the addition of the probing agonist. This allows the determination of the maximal fluorescence (Fmax). The ratio (Fmax−Fmin)/Fmin is plotted against the log of the concentration of the test compounds and the IC50 (relative antagonism) is calculated using the XLfit-4 software. […] A concentration-response curve of the probing agonist is determined on each plate in parallel.

For 26 compounds, IC50 results are on record in patent US8791100B2 (Novartis AG, priority 2010, dated 2014).

Chain of human S1P1 receptors (P21453 whole entry): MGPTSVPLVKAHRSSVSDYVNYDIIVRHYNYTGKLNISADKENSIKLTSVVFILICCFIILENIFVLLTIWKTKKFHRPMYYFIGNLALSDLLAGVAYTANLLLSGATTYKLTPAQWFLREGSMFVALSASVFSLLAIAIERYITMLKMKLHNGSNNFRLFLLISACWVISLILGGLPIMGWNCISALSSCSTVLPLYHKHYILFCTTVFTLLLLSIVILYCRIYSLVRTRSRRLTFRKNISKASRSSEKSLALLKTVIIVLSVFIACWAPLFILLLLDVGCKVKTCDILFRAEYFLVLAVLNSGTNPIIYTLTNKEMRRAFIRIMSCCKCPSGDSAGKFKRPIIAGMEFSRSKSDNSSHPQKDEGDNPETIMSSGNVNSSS

As a reminder, the IC50 is the concentration at which inhibition is half-maximal. `CC[C@@H](Nc1cc(CN2CCC(C)(C(=O)O)C2)c(Cl)cn1)c1ccc(Cl)c(C)c1` (single isomer, unassigned) [Example 87]: the IC50 is 0.7 nM.

`Cc1cc(C(C)Nc2cccc(CN3CC(C(=O)O)C3)c2)ccc1Cl` (centres unmarked) [Example 1, 1-{3-[1-(4-Chloro-3-methyl-phenyl)-ethylamino]-benzyl}-azetidine-3-carboxylic acid]: the IC50 came to 14.7 nM.

Regarding `CCC(Nc1cccc(CN2CC(C(=O)O)C2)c1)c1ccc(Cl)c(C)c1` (centres unmarked) [Example 2, 1-{3-[1-(4-Chloro-3-methyl-phenyl)-propylamino]-benzyl}-azetidine-3-carboxylic acid], the IC50 was found to be 3.5 nM.

With `CC[C@@H](Nc1cccc(CN2CC(C(=O)O)C2)c1)c1ccc(Cl)c(C)c1` [Example 3, 1-{3-[(R)-1-(4-Chloro-3-methyl-phenyl)-propylamino]-benzyl}-azetidine-3-carboxylic acid], the IC50 stood at 0.9 nM.

On to `CCC(Nc1ccc(C)c(CN2CC(C(=O)O)C2)c1)c1ccc(Cl)c(C)c1` (centres unmarked) [Example 4, 1-{5-[1-(4-Chloro-3-methyl-phenyl)-propylamino]-2-methyl-benzyl}-azetidine-3-carboxylic acid], for which the IC50 is 0.2 nM.

Regarding `CC[C@@H](Nc1cccc(C(C)N2CC(C(=O)O)C2)c1)c1ccc(Cl)c(C)c1` (stereo partly drawn) [Example 6, 1-(1-{3-[(R)-1-(4-Chloro-3-methyl-phenyl)-propylamino]-phenyl}-ethyl)-azetidine-3-carboxylic acid], the IC50 amounted to 0.5 nM.

For the compound `CC[C@@H](Nc1cccc(CN2CC(C)(C(=O)O)C2)c1)c1ccc(Cl)c(C)c1` [Example 8, 1-{3-[(R)-1-(4-Chloro-3-methyl-phenyl)-propylamino]-benzyl}-3-methyl-azetidine-3-carboxylic acid], the IC50 worked out at 1.5 nM.

On to `CCC(Nc1cc(C)cc(CN2CC(C(=O)O)C2)c1)c1ccc(Cl)c(C)c1` (centres unmarked) [Example 9, 1-{3-[1-(4-Chloro-3-methyl-phenyl)-propylamino]-5-methyl-benzyl}-azetidine-3-carboxylic acid], for which the IC50 worked out at 0.4 nM.

As for `CCC(Nc1ccc(C)c(C(C)N2CC(C(=O)O)C2)c1)c1ccc(Cl)c(C)c1` (centres unmarked) [Example 10, 1-(1-{5-[1-(4-Chloro-3-methyl-phenyl)-propylamino]-2-methyl-phenyl}-ethyl)-azetidine-3-carboxylic acid], the IC50 is 1.6 nM.

Turning to `CC[C@@H](Nc1cccc(CN2CC[C@@H](C(=O)O)C2)c1)c1ccc(Cl)c(C)c1` [Example 11], the IC50 was 4 nM.

As to `CCC(c1cccc(N[C@H](CC)c2ccc(Cl)c(C)c2)c1)N1CC(C(=O)O)C1` (stereo partly drawn) [Example 13, 1-(1-{3-[(R)-1-(4-Chloro-3-methyl-phenyl)-propylamino]-phenyl}-propyl)-azetidine-3-carboxylic acid], the IC50 was 4.7 nM.

For `CCC(Nc1cccc(CN2CC[C@@H](C(=O)O)C2)c1C)c1ccc(Cl)c(C)c1` (stereo partly drawn) [Example 14, (R)-1-{3-[1-(4-Chloro-3-methyl-phenyl)-propylamino]-2-methyl-benzyl}-pyrrolidine-3-carboxylic acid], the IC50 was found to be 1.5 nM.

With `CCC(Nc1cc(C)cc(CN2CC[C@@H](C(=O)O)C2)c1)c1ccc(Cl)c(C)c1` (stereo partly drawn) [Example 15, (R)-1-{3-[1-(4-Chloro-3-methyl-phenyl)-propylamino]-5-methyl-benzyl}-pyrrolidine-3-carboxylic acid], the IC50 was 2.3 nM.

`Cc1cc(C(Nc2cccc(CN3CC(C(=O)O)C3)c2)C(C)C)ccc1Cl` (centres unmarked) [Example 17, 1-{3-[1-(4-Chloro-3-methyl-phenyl)-2-methyl-propylamino]-benzyl}-azetidine-3-carboxylic acid]: the IC50 was 1.6 nM.

`CC[C@@H](Nc1cccc(CN2CC(C(=O)O)C2)c1)c1cc(C)c(Cl)c(C)c1` [Example 18, 1-{3-[(R)-1-(4-Chloro-3,5-dimethyl-phenyl)-propylamino]-benzyl}-azetidine-3-carboxylic acid]: the IC50 amounted to 1.9 nM.

As to `CC[C@@H](Nc1cccc(CN2CC(C(=O)O)C2)c1)c1ccc2c(Cl)cccc2c1` [Example 20, 1-{3-[(R)-1-(5-Chloro-naphthalen-2-yl)-propylamino]-benzyl}-azetidine-3-carboxylic acid], the IC50 worked out at 2 nM.

Regarding `CC[C@@H](Nc1ccc(C)c(CN2CC(C(=O)O)C2)c1)c1ccc(Cl)c(C)c1` [Example 22, 1-{5-[(R)-1-(4-Chloro-3-methyl-phenyl)-propylamino]-2-methyl-benzyl}-azetidine-3-carboxylic acid], the 50% inhibitory concentration (IC50) worked out at 0.8 nM.

With `CC[C@@H](Nc1cccc(CN2CC(C(=O)O)C2)c1F)c1ccc(Cl)c(C)c1` [Example 24, 1-{3-[(R)-1-(4-Chloro-3-methyl-phenyl)-propylamino]-2-fluoro-benzyl}-azetidine-3-carboxylic acid], the IC50 is 1.9 nM.

Consider `CC[C@@H](Nc1cccc(CN2CC[C@@H](C(=O)O)C2)c1F)c1ccc(Cl)c(C)c1` [Example 25, (R)-1-{3-[(R)-1-(4-Chloro-3-methyl-phenyl)-propylamino]-2-fluoro-benzyl}-pyrrolidine-3-carboxylic acid], for which the IC50 stood at 3.3 nM.

For `CC[C@@H](Nc1cc(CN2CC(C(=O)O)C2)ccc1F)c1ccc(Cl)c(C)c1` [Example 26, 1-{3-[(R)-1-(4-Chloro-3-methyl-phenyl)-propylamino]-4-fluoro-benzyl}-azetidine-3-carboxylic acid], the IC50 amounted to 2.1 nM.

For `CC[C@@H](Nc1cc(CN2CC[C@@H](C(=O)O)C2)ccc1F)c1ccc(Cl)c(C)c1` [Example 27, (R)-1-{3-[(R)-1-(4-Chloro-3-methyl-phenyl)-propylamino]-4-fluoro-benzyl}-pyrrolidine-3-carboxylic acid], the IC50 was 10.6 nM.

For the compound `CC[C@@H](Nc1ccc(C)c(CN2CC(C)(C(=O)O)C2)c1)c1ccc(Cl)c(C)c1` [Example 28, 1-{5-[(R)-1-(4-Chloro-3-methyl-phenyl)-propylamino]-2-methyl-benzyl}-3-methyl-azetidine-3-carboxylic acid], the IC50 is 0.8 nM.

Consider `CCc1ccc(N[C@@H](c2ccc(Cl)c(C)c2)C(F)(F)F)cc1CN1CC(C(=O)O)C1` [Example 35, 1-{5-[(S)-1-(4-Chloro-3-methyl-phenyl)-2,22-trifluoro-ethylamino]-2-ethyl-benzyl}-azetidine-3-carboxylic acid], for which the IC50 is 1.8 nM.

Consider `CCc1ccc(N[C@H](CC)c2ccc(Cl)c(C)c2)cc1CN1CC[C@@H](C(=O)O)C1` [Example 36, (R)-1-{5-[(R)-1-(4-Chloro-3-methyl-phenyl)-propylamino]-2-ethyl-benzyl}-pyrrolidine-3-carboxylic acid], for which the IC50 was 3.7 nM.

Regarding `CCc1ccc(N[C@H](CC)c2ccc(Cl)c(C)c2)cc1CN1CC(C(=O)O)C1` [Example 37, 1-{5-[(R)-1-(4-Chloro-3-methyl-phenyl)-propylamino]-2-ethyl-benzyl}-azetidine-3-carboxylic acid], the IC50 came to 2.5 nM.

For `CC[C@@H](Nc1ccc(Cl)c(CN2CC[C@@H](C(=O)O)C2)c1)c1ccc(Cl)c(C)c1` [Example 38, (R)-1-{2-Chloro-5-[(R)-1-(4-chloro-3-methyl-phenyl)-propylamino]-benzyl}-pyrrolidine-3-carboxylic acid], the IC50 was found to be 0.8 nM.
